In patent US20210393633A1, “INHIBITORS OF HUMAN IMMUNODEFICIENCY VIRUS REPLICATION” (ViiV HEALTHCARE UK (NO.5) LIMITED, priority 2018, published 2021) one finds CC50 and EC50 data, which are given here for twelve compounds.

Data set [1] can be described thus: Compound cytotoxicity, XTT-based colorimetric assay. Type of data set: cell-based. The conditions noted are these: human; uninfected MT2 cells, day 4, XTT. On the procedure:
Compound cytotoxicity and the corresponding CC50 values were determined using the same protocol as described in the antiviral assay except that uninfected cells were used. Cytotoxicity was assessed on day 4 in uninfected MT2 cells by using a XTT (2,3-bis[2-Methoxy-4-nitro-5-sulfophenyl]-2H-tetrazolium-5-carboxyanilide inner salt)-based colorimetric assay (Sigma-Aldrich, St Louis, Mo).
For orientation: Tetrazolium assays rely on reduction of a dye to a coloured formazan, in cell work by metabolically active cells.

In data set [2] the test system is recombinant NL4-3 virus (nef section replaced with Renilla luciferase gene) in MT-2 cells. Description: HIV cell culture assay (antiviral activity, luciferase readout in infected MT-2 cells). Type of data set: cell-based. The settings on record: NL43. On the procedure:
HIV cell culture assay—MT-2 cells, 293T cells and the proviral DNA clone of NL4-3 virus were obtained from the NIH AIDS Research and Reference Reagent Program. MT-2 cells were propagated in RPMI 1640 media supplemented with 10% heat inactivated fetal bovine serum (FBS), […]. The 293T cells were propagated in DMEM media supplemented with 10% heat inactivated FBS, […]. A recombinant NL4-3 proviral clone, in which a section of the nef gene was replaced with the Renilla luciferase gene, was used to make the reference virus used in these studies. The recombinant virus was prepared through transfection of the recombinant NL4-3 proviral clone into 293T cells using Transit-293 Transfection Reagent from Minis Bio LLC (Madison, Wis.). Supernatent was harvested after 2-3 days and the amount of virus present was titered in MT-2 cells using luciferase enzyme activity as a marker by measuring luciferase enzyme activity. Luciferase was quantitated using the EnduRen Live Cell Substrate from Promega (Madison, Wis.). Antiviral activities of compounds toward the recombinant virus were quantified by measuring luciferase activity in MT-2 cells infected for 4-5 days with the recombinant virus in the presence of serial dilutions of the compound.
The 50% effective concentration (EC5o) was calculated by using the exponential form of the median effect equation where (Fa)=1/[1+(ED50/drug conc.)m] (Johnson Va., Byington R T. Infectivity Assay. In Techniques in HIV Research. ed. Aldovini A, Walker B D. 71-76. New York: Stockton Press.1990). The 50% inhibitory concentration (EC50) was calculated by using the exponential form of the median effect equation where percent inhibition=1/[1 +(EC50/drug concentration)m], where m is a parameter that reflects the slope of the concentration-response curve.

What is called CC50 is the concentration at which the toxic effect on the cells reaches its halfway point. The low end stands for greater toxicity to the cells, the high end for lower toxicity to the cells. For orientation: EC50 means the concentration needed to bring the measured effect to its halfway point. Take `CN1CCC(c2ccc3c(=O)n(-c4ccc(Cl)c5c(NS(C)(=O)=O)nn(C)c45)c([C@H](Cc4cc(F)cc(F)c4)NC(=O)Cn4nc(C(F)F)c5c4C(F)(F)[C@@H]4C[C@H]54)nc3c2)CC1` (atropisomer, axis not shown; (P)) [Example 14, N—((S)-1-((3P)-3-(4-chloro-1-methyl-3-(methylsulfonamido)-1H-indazol-7-yl)-7-(1-methylpiperidin-4-yl)-4-oxo-3,4-dihydroquinazolin-2-yl)-2-(3,5-difluorophenyl)ethyl)-2-((3bS,4aR)-3-(difluoromethyl)-5,5-difluoro-3b,4,4a,5-tetrahydro-1H-cyclopropa[3,4]cyclopenta[1,2-c]pyrazol-1-yl)acetamide]: in data set [1], the CC50 at 4 day is more than 500 nM. Besides, in data set [2], the EC50 amounted to 0.23 nM.
With `CN1CC=C(c2ccc3c(=O)n(-c4ccc(Cl)c5c(NS(C)(=O)=O)nn(C)c45)c([C@H](Cc4cc(F)cc(F)c4)NC(=O)Cn4nc(C(F)F)c5c4C(F)(F)[C@@H]4C[C@H]54)nc3c2)CC1` (atropisomer, axis not shown; (P)) [Example 13], in data set [1], the CC50 at 4 day was more than 1000 nM. The EC50 in data set [2] was 0.098 nM.
In the same order, the values of `Cn1nc(NS(C)(=O)=O)c2c(Cl)ccc(-n3c([C@H](Cc4cc(F)cc(F)c4)NC(=O)Cn4nc(C(F)F)c5c4C(F)(F)[C@@H]4C[C@H]54)nc4cc(CCc5ccccc5)ccc4c3=O)c21` (atropisomer, axis not shown; (P)) [Example 3, N—((S)-1-((3P)-3-(4-chloro-1-methyl-3-(methylsulfonamido)-1H-indazol-7-yl)-4-oxo-7-phenethyl-3,4-dihydroquinazolin-2-yl)-2-(3,5-difluorophenyl)ethyl)-2-((3bS,4aR)-3-(difluoromethyl)-5,5-difluoro-3b,4,4a,5-tetrahydro-1H-cyclopropa[3,4]cyclopenta[1,2-c]pyrazol-1-yl)acetamide] are more than 1000 nM and 0.771 nM.
As for `Cn1nc(NS(C)(=O)=O)c2c(Cl)ccc(-n3c([C@H](Cc4cc(F)cc(F)c4)NC(=O)Cn4nc(C(F)F)c5c4C(F)(F)[C@@H]4C[C@H]54)nc4cc(CC5CC5)ccc4c3=O)c21` (atropisomer, axis not shown; (P)) [Example 12, N—((S)-1-((3P)-3-(4-chloro-1-methyl-3-(methylsulfonamido)-1H-indazol-7-yl)-7-(cyclopropylmethyl)-4-oxo-3,4-dihydroquinazolin-2-yl)-2-(3,5-difluorophenyl)ethyl)-2-((3bS,4aR)-3-(difluoromethyl)-5,5-difluoro-3b,4,4a,5-tetrahydro-1H-cyclopropal3,41cyclopenta[1,2-c]pyrazol-1-yl)acetamide], the CC50 at 4 day in data set [1] was more than 1000 nM. Moreover, the EC50 in data set [2] was 0.142 nM.
In data set [1], `CS(=O)(=O)Nc1nn(CC(F)F)c2c(-n3c([C@H](Cc4cc(F)cc(F)c4)NC(=O)Cn4nc(C(F)F)c5c4C(F)(F)[C@@H]4C[C@H]54)nc4cc(C5CCOCC5)ccc4c3=O)ccc(Cl)c12` (atropisomer, axis not shown; (P)) [Example 17, N—((S)-1-((3P)-3-(4-chloro-1-(2,2-difluoroethyl)-3-(methylsulfonamido)-1H-indazol-7-yl)-4-oxo-7-(tetrahydro-2H-pyran-4-yl)-3,4-dihydroquinazolin-2-yl)-2-(3,5-difluorophenyl)ethyl)-2-((3bS,4aR)-3-(difluoromethyl)-5,5-difluoro-3b,4,4a,5-tetrahydro-1H-cyclopropal3,41cyclopenta[1,2-c]pyrazol-1-yl)acetamide] had a half-maximal cytotoxic concentration (CC50) at 4 day of more than 500 nM. The EC50 in data set [2] was 0.06 nM.
As to `Cn1nc(NS(C)(=O)=O)c2c(Cl)ccc(-n3c([C@H](Cc4cc(F)cc(F)c4)NC(=O)Cn4nc(C(F)F)c5c4C(F)(F)[C@@H]4C[C@H]54)nc4cc(CCC(=O)N5CCOCC5)ccc4c3=O)c21` [Example 1, N—((S)-1-((3P)-3-(4-chloro-1-methyl-3-(methylsulfonamido)-1H-indazol-7-yl)-7-(3-morpholino-3-oxopropyl)-4-oxo-3,4-dihydroquinazolin-2-yl)-2-(3,5-difluorophenyl)ethyl)-2-((3bS,4aR)-3-(difluoromethyl)-5,5-difluoro-3b,4,4a,5-tetrahydro-1H-cyclopropa[3,4]cyclopenta[1,2-c]pyrazol-1-yl)acetamide], the CC50 at 4 day in data set [1] was more than 1000 nM. Also, the EC50 in data set [2] is 0.096 nM.
Consider `CC1NCCNC1c1ccc2c(=O)n(-c3ccc(Cl)c4c(NS(C)(=O)=O)nn(C)c34)c([C@H](Cc3cc(F)cc(F)c3)NC(=O)Cn3nc(C(F)F)c4c3C(F)(F)[C@@H]3C[C@H]43)nc2c1` (stereo partly drawn) [Example 10, N-((1S)-1-((3P)-3-(4-chloro-1-methyl-3-(methylsulfonamido)-1H-indazol-7-yl)-7-(3-methylpiperazin-2-yl)-4-oxo-3,4-dihydroquinazolin-2-yl)-2-(3,5-difluorophenyl)ethyl)-2-((3bS,4aR)-3-(difluoromethyl)-5,5-difluoro-3b,4,4a,5-tetrahydro-1H-cyclopropa[3,4]cyclopenta[1,2-c]pyrazol-1-yl)acetamide], for which, in data set [1], the CC50 at 4 day was more than 1000 nM. Besides, the EC50 in data set [2] was 0.933 nM.
As to `Cn1nc(NS(C)(=O)=O)c2c(Cl)ccc(-n3c([C@H](Cc4cc(F)cc(F)c4)NC(=O)Cn4nc(C(F)F)c5c4C(F)(F)[C@@H]4C[C@H]54)nc4cc(C5CCOCC5)ccc4c3=O)c21` (atropisomer, axis not shown; (P)) [Example 11, N—((S)-1-((3P)-3-(4-chloro-1-methyl-3-(methylsulfonamido)-1H-indazol-7-yl)-4-oxo-7-(tetrahydro-2H-pyran-4-yl)-3,4-dihydroquinazolin-2-yl)-2-(3,5-difluorophenyl)ethyl)-2-((3bS,4aR)-3-(difluoromethyl)-5,5-difluoro-3b,4,4a,5-tetrahydro-1H-cyclopropa[3,4]cyclopenta[1,2-c]pyrazol-1-yl)acetamide], the CC50 at 4 day in data set [1] was more than 1000 nM. Also, in data set [2], the EC50 is 0.046 nM.
As for `C[C@@H]1CC(c2ccc3c(=O)n(-c4ccc(Cl)c5c(NS(C)(=O)=O)nn(C)c45)c([C@H](Cc4cc(F)cc(F)c4)NC(=O)Cn4nc(C(F)F)c5c4C(F)(F)[C@@H]4C[C@H]54)nc3c2)C[C@H](C)O1` (stereo partly drawn) [Example 22, N-((1S)-1-((3P)-3-(4-chloro-1-methyl-3-(methylsulfonamido)-1H-indazol-7-yl)-7-((2R,6S)-2,6-dimethyltetrahydro-2H-pyran-4-yl)-4-oxo-3,4-dihydroquinazolin-2-yl)-2-(3,5-difluorophenyl)ethyl)-2-((3bS,4aR)-3-(difluoromethyl)-5,5-difluoro-3b,4,4a,5-tetrahydro-1H-cyclopropa[3,4]cyclopenta[1,2-c]pyrazol-1-yl)acetamide], the CC50 at 4 day in data set [1] was more than 500 nM. In addition, the EC50 in data set [2] was determined as 0.082 nM.
Consider `CC(C)=C(C)c1ccc2c(=O)n(-c3ccc(Cl)c4c(NS(C)(=O)=O)nn(C)c34)c([C@H](Cc3cc(F)cc(F)c3)NC(=O)Cn3nc(C(F)F)c4c3C(F)(F)[C@@H]3C[C@H]43)nc2c1` (atropisomer, axis not shown; (P)) [Example 7, N—((S)-1-((3P)-3-(4-chloro-1-methyl-3-(methylsulfonamido)-1H-indazol-7-yl)-7-(3-methylbut-2-en-2-yl)-4-oxo-3,4-dihydroquinazolin-2-yl)-2-(3,5-difluorophenyl)ethyl)-2-((3bS,4aR)-3-(difluoromethyl)-5,5-difluoro-3b,4,4a,5-tetrahydro-1H-cyclopropa[3,4]cyclopenta[1,2-c]pyrazol-1-yl)acetamide], for which the CC50 at 4 day in data set [1] was more than 1000 nM. In data set [2], the EC50 was determined as 0.386 nM.
For `CCCCCCCCc1ccc2c(=O)n(-c3ccc(Cl)c4c(NS(C)(=O)=O)nn(C)c34)c([C@H](Cc3cc(F)cc(F)c3)NC(=O)Cn3nc(C(F)F)c4c3C(F)(F)[C@@H]3C[C@H]43)nc2c1` (atropisomer, axis not shown; (P)) [Example 4, N—((S)-1-((3P)-3-(4-chloro-1-methyl-3-(methylsulfonamido)-1H-indazol-7-yl)-7-octyl-4-oxo-3,4-dihydroquinazolin-2-yl)-2-(3,5-difluorophenyl)ethyl)-2-((3bS,4aR)-3-(difluoromethyl)-5,5-difluoro-3b,4,4a, 5-tetrahydro-1H-cyclopropa[3, 4]cyclopenta [1,2-c]pyrazol-1-yl)acetamide] the same measures were more than 1000 nM and 3.9 nM.
The compound `Cn1nc(NS(C)(=O)=O)c2c(Cl)ccc(-n3c([C@H](Cc4cc(F)cc(F)c4)NC(=O)Cn4nc(C(F)F)c5c4C(F)(F)[C@@H]4C[C@H]54)nc4cc(C5(C(F)(F)F)CC5)ccc4c3=O)c21` (atropisomer, axis not shown; (P)) [Example 27] had a CC50 at 4 day in data set [1] of more than 500 nM. Further, in data set [2], the EC50 was found to be 0.13 nM.
